Experiment [1] is described as follows: Percent inhibition in hepatocyte culture system in the presence of cyanamide at 1/20 molar concentration of ethanol and lowered concentration of ethanol-derived AcH. It is filed as functional, Rattus norvegicus.
The nature of experiment [2]: Percent inhibition in hepatocyte culture system at 1/20 molar concentration of ethanol and lowered concentration of ethanol-derived AcH. The format is functional, Rattus norvegicus.

In general, Inhibition refers to the drop in the measured response relative to a control, in per cent.

Turning to `CC(C)(NC(=O)[C@H](N)C(C)(C)S)C(=O)O.Cl`, in experiment [1], the Inhibition stood at 37%.

With `CC(C)(S)[C@@H](N)C(=O)NCC(=O)O.Cl`, the Inhibition in experiment [2] amounted to 79%; in experiment [1], 33%.

Turning to `C[C@H](NC(=O)[C@H](N)C(C)(C)S)C(=O)O.Cl`, in experiment [2], the Inhibition amounted to 84%.

For the origin of these results see ChEMBL document CHEMBL1133097, “N-Terminal dipeptides of D(-)-penicillamine as sequestration agents for acetaldehyde” (2000).
